Assay results taken from paper PMC6132687, “Stem cells are the most sensitive screening tool to identify toxicity of GATA4-targeted novel small-molecule compounds” (Archives of Toxicology, 2018).

Tests used:
cardiac function = test system: cardiac function; set-up: method as in Kinnunen et al. [2018]; details: after myocardial infarction or angiotensin II-induced cardiac hypertrophy; ref Kinnunen et al. [2018]; cited from earlier work
[1] = test system: extracellular signal-regulated kinase 1/2 signalling; set-up: method as in Ferreira et al. [2017]; details: systemic administration in heart-targeted nanoparticles; ref Ferreira et al. [2017]; cited from earlier work
[2] = test system: stretch-induced cardiomyocyte hypertrophy; set-up: method as in Välimäki et al. [2017]; details: ref Välimäki et al. [2017]; cited from earlier work
MEFs = assay: MTT assay in MEFs; type: cell-based, mouse; details: 24 h, 30 µM, not statistically significant
Protocol: The cells were exposed to the test compounds for 24 h and cytotoxicity was quantified with MTT and LDH assays as described previously (Talman et al. [2011]). For the determination of cell membrane integrity, 50 µl of medium from each well was transferred onto a new 96-well plate followed by addition of 50 µl of substrate solution containing 1.3 mM β-nicotinamide adenine dinucleotide, 660 µM iodonitrotetrazolium, 54 mM L(+)-lactic acid, 280 µM phenazine methosulphate and 0.2 M Tris–HCl (pH 8.0). After a 30-min incubation, the reaction was stopped by adding 50 µl of 1 M acetic acid to each well and absorbance was measured at 490 nm using Victor2 plate reader (PerkinElmer, Turku, Finland). Spontaneous LDH release was measured from untreated cells, maximal LDH release from cells lysed with 0.9% Triton X-100 and background absorbance was measured from wells without cells. After background extraction, cytotoxicity was calculated as follows: cytotoxicity (%) = [(sample − spontaneous LDH release)/(maximal LDH release − spontaneous LDH release)] × 100. For quantification of metabolic activity, 3-(4,5-dimethylthiazol-2-yl)-2,5-diphenyltetrazolium bromide (MTT) was added to the cells at a final concentration of 0.5 mg/ml followed by 2 h incubation in cell culture conditions. […] Absorbance was measured at 550 nm and absorbance at 650 nm was subtracted as background. […]

For `CCN(CC)c1ccc(NC(=O)c2c(-c3ccccc3)noc2C)cc1` [3i-1000], the cardiac function (cardiac function) is listed as “improves cardiac function”, the “pro-hypertrophic ERK1/2 signalling in the hypoxic endocardial layer of the left ventricle” value [1] is listed as “inhibits” and the stretch-induced cardiomyocyte hypertrophy [2] is listed as “attenuates”.
With `CCC(=O)N(Cc1ccc(N(CC)CC)cc1)c1c(-c2ccccc2)noc1C` [3i-1120] the “toxicity in MEFs” value (MEFs) was “modest toxicity”.
